Values joined by “and” are separate entries in the source; they are usually repeats but may differ in a detail not shown here. Equal entries are not always repeated. Where two headings read alike, the source gives them in different places.
Assays:
[1] = system: CYP2A6; design: method as in PMID 34069400, doi:10.5562/cca3652, PMID 35721953; conditions: cited from earlier work
[2] = target: T1, CYP2B6 (Homo sapiens, UniProt P20813); experiment: Cell-free CYP450 inhibition assay, CYP2B6; format: biochemical; conditions: cell-free fluorescent probe assay, BACULOSOMES
T1 construct: purchased Life Technologies
T1 sequence (P20813 whole entry): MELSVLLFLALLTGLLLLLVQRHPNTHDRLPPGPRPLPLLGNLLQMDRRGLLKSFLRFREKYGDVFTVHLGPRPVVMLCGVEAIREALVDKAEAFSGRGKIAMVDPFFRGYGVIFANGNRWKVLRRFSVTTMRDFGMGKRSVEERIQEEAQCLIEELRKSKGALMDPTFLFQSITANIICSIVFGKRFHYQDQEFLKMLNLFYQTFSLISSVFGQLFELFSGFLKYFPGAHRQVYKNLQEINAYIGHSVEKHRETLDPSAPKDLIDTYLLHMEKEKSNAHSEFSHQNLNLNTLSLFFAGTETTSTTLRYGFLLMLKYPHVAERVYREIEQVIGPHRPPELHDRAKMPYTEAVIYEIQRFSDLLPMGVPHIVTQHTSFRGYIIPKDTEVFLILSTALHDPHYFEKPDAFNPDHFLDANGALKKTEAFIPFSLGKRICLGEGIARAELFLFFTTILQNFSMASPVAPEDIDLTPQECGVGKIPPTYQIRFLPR
Description: To determine whether pinocembrin influences the catalytic activity of CYP450 enzymes, fluorescent probe reaction assays were performed using varying concentrations of pinocembrin. […] In addition, molecular docking was conducted to better understand the binding mode and interactions between pinocembrin and human CYP2C19.
The CYP450 inhibitory activity of pinocembrin was determined using a P450 screening kit (Life Technologies; Carlsbad, CA, USA). Varied concentrations of pinocembrin were prepared in methanol. […] The fluorescence intensities were monitored every minute for 60 min at room temperature. The percentage of inhibition was calculated according to the following equation: % Inhibition=(1−X−B/A−B)×100% where X is the fluorescence intensity observed in the presence of pinocembrin.

[3] = target: T2, P-gp (Homo sapiens, UniProt P08183); experiment: P-gp-mediated 3H-digoxin transepithelial transport in Caco-2 cell monolayers; format: cell-based; conditions: 10 µM pinocembrin, 0-120 min, compared with vehicle control
T2 construct: Caco-2 cell monolayers, which express both P-gp and BCRP; host or cells: Caco-2
T2 sequence (P08183 whole entry): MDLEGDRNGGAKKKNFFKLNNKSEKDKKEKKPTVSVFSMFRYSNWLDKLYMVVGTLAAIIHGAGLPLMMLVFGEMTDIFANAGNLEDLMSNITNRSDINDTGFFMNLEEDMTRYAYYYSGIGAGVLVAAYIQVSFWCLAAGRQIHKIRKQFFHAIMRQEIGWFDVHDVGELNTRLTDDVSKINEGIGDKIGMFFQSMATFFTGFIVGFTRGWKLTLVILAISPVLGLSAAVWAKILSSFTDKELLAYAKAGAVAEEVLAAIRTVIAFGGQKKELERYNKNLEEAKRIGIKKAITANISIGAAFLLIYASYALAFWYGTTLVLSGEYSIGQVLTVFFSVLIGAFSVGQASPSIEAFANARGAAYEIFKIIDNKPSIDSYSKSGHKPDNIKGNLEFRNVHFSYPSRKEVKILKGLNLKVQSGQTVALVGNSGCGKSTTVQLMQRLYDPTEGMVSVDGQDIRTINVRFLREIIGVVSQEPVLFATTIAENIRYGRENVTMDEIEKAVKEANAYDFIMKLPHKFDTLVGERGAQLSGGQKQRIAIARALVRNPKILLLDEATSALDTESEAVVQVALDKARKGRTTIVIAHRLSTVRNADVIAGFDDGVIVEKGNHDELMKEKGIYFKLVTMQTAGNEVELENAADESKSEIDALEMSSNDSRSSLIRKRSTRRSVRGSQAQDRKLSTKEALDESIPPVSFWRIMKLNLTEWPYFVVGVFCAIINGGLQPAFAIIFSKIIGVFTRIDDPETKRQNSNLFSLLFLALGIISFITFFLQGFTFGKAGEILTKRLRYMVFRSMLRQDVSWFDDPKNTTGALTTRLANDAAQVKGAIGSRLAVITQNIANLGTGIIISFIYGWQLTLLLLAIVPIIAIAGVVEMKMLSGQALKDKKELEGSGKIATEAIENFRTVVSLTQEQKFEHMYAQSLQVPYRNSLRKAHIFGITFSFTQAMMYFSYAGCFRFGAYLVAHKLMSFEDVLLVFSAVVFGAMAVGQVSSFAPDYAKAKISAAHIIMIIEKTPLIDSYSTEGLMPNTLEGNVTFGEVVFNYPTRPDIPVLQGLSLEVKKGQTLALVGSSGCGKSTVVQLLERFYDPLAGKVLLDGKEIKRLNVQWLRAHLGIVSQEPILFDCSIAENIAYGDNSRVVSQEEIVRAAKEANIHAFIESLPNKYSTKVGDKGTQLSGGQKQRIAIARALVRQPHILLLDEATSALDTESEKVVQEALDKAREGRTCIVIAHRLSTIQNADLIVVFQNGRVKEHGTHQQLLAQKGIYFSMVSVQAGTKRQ
Description: The interactions of pinocembrin with P-gp and BCRP were determined by the measurement of P-gp-mediated ^3H-digoxin transport and BCRP-mediated ^3H-estrone sulfate transport in Caco-2 cell monolayers, which express both P-gp and BCRP [20]. The apical sides of the Caco-2 cell monolayers were incubated with a buffer containing ^3H-digoxin alone, ^3H-digoxin plus 10 µM pinocembrin or ^3H-digoxin plus 100 µM verapamil (P-gp inhibitor).
P-gp- and BCRP-mediated transport were measured by the transepithelial transport of their substrates (^3H-digoxin for P-gp and ^3H-estrone sulfate for BCRP) in Caco-2 cell monolayers. […] Caco-2 cells were cultured on membrane inserts (Corning Inc., Corning, NY, USA) for 21 days. […] The basolateral side was replaced with a transport buffer. The sample from the basolateral side was transferred to vials containing a liquid scintillation cocktail to measure radioactivity by a β-counter (Packard BioScience, Wellesley, MA, USA).

[4] = design: method as in PMID 25814318; conditions: cited from earlier work
[5] = target: T3, hOAT3 (Homo sapiens, UniProt Q8TCC7); experiment: Cis-inhibition assay, 3H-estrone sulfate uptake in hOAT3-MDCK cells; format: cell-based; conditions: 10 µM pinocembrin, compared with vehicle control
T3 construct: host or cells: MDCK
T3 sequence (Q8TCC7 1-542): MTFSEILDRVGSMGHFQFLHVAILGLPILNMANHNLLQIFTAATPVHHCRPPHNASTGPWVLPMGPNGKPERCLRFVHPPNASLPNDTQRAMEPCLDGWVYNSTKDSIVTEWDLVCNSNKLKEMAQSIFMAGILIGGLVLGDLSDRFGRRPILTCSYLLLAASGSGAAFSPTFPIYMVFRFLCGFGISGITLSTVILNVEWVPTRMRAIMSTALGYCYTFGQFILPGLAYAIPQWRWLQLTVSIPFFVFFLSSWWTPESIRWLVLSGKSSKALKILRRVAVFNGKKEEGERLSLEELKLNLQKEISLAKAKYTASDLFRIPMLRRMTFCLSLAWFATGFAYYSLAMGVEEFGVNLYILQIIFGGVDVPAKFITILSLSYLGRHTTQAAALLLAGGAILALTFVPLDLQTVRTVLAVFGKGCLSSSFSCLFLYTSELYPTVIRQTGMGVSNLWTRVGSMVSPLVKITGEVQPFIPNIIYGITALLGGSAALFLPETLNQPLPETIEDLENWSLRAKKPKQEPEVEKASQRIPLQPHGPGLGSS
Description: Next, the effects of pinocembrin on the transport function of renal drug transporters, including hOAT1, hOAT3, hOCT1, hOCT2, hMATE1, and hMATE2, were determined.
(§1) A cell monolayer comprising hOAT1-MDCK, hOAT3-MDCK, hOCT1-CHO-K1, hOCT2-CHO-K1, hMATE1-CHO-K1, hMATE2-CHO-K1, and mock cells were utilized for the uptake experiments. The cells were washed three times with a buffer containing (in mM) 140 NaCl, 5 KCl, 0.4 MgSO4, 0.5 MgCl2, 1 CaCl2, 0.3 Na2HPO4, 0.4 KH2PO4, 6 D-glucose, and 4 NaHCO3 at pH 7.4 and incubated at 37 °C for 15 min. After incubation, the hOAT1-MDCK and hOAT3-MDCK cells were incubated for 10 min with ^3H-PAH and ^3H-estrone sulfate, a substrate of hOAT1 and hOAT3, respectively. The hOCT1-CHO-K1 and hOCT2-CHO-K1 cells were incubated with ^3H-MPP^+, a substrate of OCT1 and OCT2, for five minutes. The functions of MATE1 and MATE2 were determined by incubating the hMATE1-CHO-K1 and hMATE2-CHO-K1 cells with a buffer containing ^3H-MPP^+, a substrate of MATE1 and MATE2, at pH 8.5 for five minutes. The cells were washed three times with an ice-cold buffer to stop the transport function. The cells were lyzed with 0.4 N NaOH for at least four hours. The samples were collected and transferred to vials containing a liquid scintillation cocktail to measure radioactivity by a β-counter (Packard BioScience, Wellesley, MA, USA). […]

[6] = target: T3, hOAT3; experiment: Pinocembrin treatment followed by 3H-estrone sulfate accumulation in hOAT3-MDCK cells; format: cell-based; conditions: 1, 10 and 50 μM for 24 h, concentration-dependent, compared with vehicle
Description: The hOAT1-MDCK cells and hOAT3-MDCK cells were treated with 1, 10, and 50 μM pinocembrin for 24 h, followed by a measurement of ^3H-PAH and ^3H-estrone sulfate cellular accumulation. […] The inhibitory effect of pinocembrin occurred in a concentration-dependent manner.
as §1, with “The cells were lyzed with 0.4 N NaOH for at least four hours.” left out

[7] = 80 mg intravenous injection, human subjects

## O=C1C[C@@H](c2ccccc2)Oc2cc(O)cc(O)c21 [pinocembrin]
[1]
  effect on the activity of CYP2A6: does not affect
[2]
  IC50: 44 µM
[3]
  transport of 3H-digoxin from the apical to basolateral side: did not alter
[4]; 40 mg intravenous injection
  maximal plasma concentration: 0.6 µg/mL and 2.3 µM
[4]; 80 mg intravenous injection
  maximal plasma concentration: 4.7 µM
[4]; [7]
  T1/2: 55 min
  maximal plasma concentration (Cmax): 1220 ng/mL
[4]; phase I clinical trials
  observed plasma concentration: 3 to 10 µM
[5]
  3H-estrone sulfate cellular accumulation: significantly decreased
[6]
  3H-estrone sulfate accumulation after pinocembrin treatment: significantly decreased
